Here are results for 33 compounds from patent US6943183B2 (Pfizer Inc, priority 2000, dated 2005).

For the experiment, the target named is T1, SF9 affinity purified rat FPT (Rattus norvegicus, UniProt Q02293+Q04631).
T1 construct: made in house; host or cells: Sf9 insect cells
Nature of the experiment: PFT (FPT) inhibitory activity assay, radiolabeled farnesyl pyrophosphate and biotinyl peptide, streptavidin beads. The class given is biochemical. The following applies: HEPES buffer pH 7.4, 30° C., 30 minutes; read-out: FTase IC50. As to the method: The PFT or FPT inhibitory activity of compounds of the present invention were assayed in HEPES buffer (pH 7.4) containing 5 mM potassium phosphate and 20 μM ZnCl2. The solution also contained 5 mM DTT (dithiothreitol), 5 mM MgCl2, and 0.1% PEG 8000. Assays were performed in 96 well plates (Wallec) and employed solutions composed of varying concentrations of a compound of the present invention in 10% DMSO (dimethylsulfoxide). […] After incubation at 30° C. for 30 minutes, the reaction was terminated by diluting the reaction 2.5-fold with a stop buffer containing 1.5 M magnesium acetate, 0.2 M H3PO4, 0.5% BSA (bovine serum albumin), and strepavidin beads (Amersham) at a concentration of 1.3 mg/mL. […] The assay was also carried out without 5 mM potassium phosphate.
Broadly, the IC50 is the concentration that gives 50% inhibition. Consider `COc1ccc([S+]([O-])Cc2c(O[C@H](Cn3ccnc3)c3ccccc3)ccc3c2CCCC3=O)cc1` (stereo partly drawn) [Compound 141, 6-((S)-2-Imidazol-1-yl-1-phenyl-ethoxy)-5-(4-methoxy-benzenesulfinylmethyl)-3,4-dihydro-2H-napthalen-1-one], for which the half-inhibitory concentration (IC50) amounted to 0.35 nM.

As for `O=C(Nc1c(O[C@H](Cn2ccnc2)c2ccccc2)ccc2c1CCCC2=O)c1cc2ccccc2cn1` [Compound 40b, Isoquinioline-3-carboxylic acid [2-((S)-2-imidazol-1-yl-1-phenyl-ethoxy)-5-oxo-5,6,7,8-tetrahydro-naphthalen-1-yl]-amide], the IC50 worked out at 6 nM.

In the case of `O=C1CCCc2c1ccc(O[C@H](Cn1ccnc1)c1ccccc1)c2COc1ccc2c(c1)OCO2` [Compound 92, 6-((1S)-2-imidazolyl-1-phenylethoxy)-5-(2H-benzo[d]1,3-dioxolan-5-yloxymethyl)-2,3,4-trihydronaphthalen-1-one], the 50% inhibitory concentration (IC50) came out at 4 nM.

As for `O=C1CCCc2c1ccc(O[C@H](Cn1ccnc1)c1ccccc1)c2COc1cccc2cccnc12` [Compound 94], the IC50 was found to be 3 nM.

Regarding `O=C(NCc1c(O[C@H](Cn2ccnc2)c2ccccc2)ccc2c1CCCC2=O)c1ccccc1` [Compound 42i, N-[2-((S)-2-Imidazol-1-yl-1-phenyl-ethoxy)-5-oxo-5,6,7,8-tetrahydro-naphthalen-1-ylmethyl]-benzamide], the IC50 came out at 1.5 nM.

Take `O=C1CCCc2c1ccc(O[C@H](Cn1ccnc1)c1ccccc1)c2Br` [Compound 34, 6-((1S)-2-Imidazolyl-1-phenylethoxy)-5-bromo-2,3,4-trihydronaphthalen-1-one]: the IC50 worked out at 25 nM.

As to `O=C1CCCc2c1ccc(O[C@H](Cn1ccnc1)c1ccccc1)c2NC(=O)c1ncoc1-c1ccc(Cl)cc1` [Compound 40d, 5-(4-Chloro-phenyl)-oxazole-4-carboxylic acid [2-((S)-2-imidazol-1-yl-1-phenyl-ethoxy)-5-oxo-5,6,7,8-tetrahydro-naphthalen-1-yl]-amide], the IC50 stood at 9 nM.

`O=C(NC1CC1)c1cccc(SCc2c(O[C@H](Cn3ccnc3)c3ccccc3)ccc3c2CCCC3=O)c1` [Compound 227, N-Cyclopropyl-3-{[(2-{[(1S)-2-(1H-imidazol-1-yl)-1-phenylethyl]oxy}-5-oxo-5,6,7,8-tetrahydro-1-naphthalenyl)methyl]sulfanyl}benzamide]: the IC50 turned out to be 0.2 nM.

For the compound `Cc1ccc(C(C)C)cc1OCc1c(O[C@H](Cn2ccnc2)c2ccccc2)ccc2c1CCCC2=O` [Compound 70], the 50% inhibitory concentration (IC50) was determined as 7 nM.

For `CCC(C)OCc1c(O[C@H](Cn2ccnc2)c2ccccc2)ccc2c1CCCC2=O` (mixture of isomers) [Compound 19d, (±)5-sec-Butoxymethyl-6-((S)-2-imidazol-1-yl-1-phenyl-ethoxy)-3,4-dihydro-2H-naphthalen-1-one], the concentration for half-maximal inhibition (IC50) came to 1.9 nM.

For `O=C1CCCc2c1ccc(O[C@H](Cn1ccnc1)c1ccccc1)c2COc1ccc2c(c1)OCO2` [Compound 93, 6-((1S)-2-Imidazolyl-1-phenylethoxy)-5-(2H-benzo[d]1,3-dioxolan-5-yloxymethyl)-2,3,4-trihydronaphthalen-1-one], the IC50 was found to be 3 nM.

Take `C=CCNC(=O)c1ccc(S(=O)(=O)Cc2c(O[C@H](Cn3ccnc3)c3ccccc3)ccc3c2CCCC3=O)cc1` [Compound 206, N-Allyl-4-{[(2-{[(1S)-2-(1H-imidazol-1-yl)-1-phenylethyl]oxy}-5-oxo-5,6,7,8-tetrahydro-1-naphthalenyl)methyl]sulfonyl}benzamide]: the half-inhibitory concentration (IC50) worked out at 0.8 nM.

With `O=C1CCCc2c1ccc(O[C@H](Cn1ccnc1)c1ccccc1)c2CCc1ccncc1` [Compound 26, 6-((1S)-2-Imidazolyl-1-phenylethoxy)-5-(2-(4-pyridyl)ethyl)-2,3,4-trihydronaphthalen-1-one], the IC50 was 2 nM.

Regarding `O=C(NC(CO)CO)c1ccc(S(=O)(=O)Cc2c(O[C@H](Cn3ccnc3)c3ccccc3)ccc3c2CCCC3=O)cc1` [Compound 235, N-[2-Hydroxy-1-(hydroxymethyl)ethyl]-4-{[(2-{[(1S)-2-(1H-imidazol-1-yl)-1-phenylethyl]oxy}-5-oxo-5,6,7,8-tetrahydro-1-naphthalenyl)methyl]sulfonyl}benzamide], the IC50 stood at 15 nM.

As to `CCCc1c(OC(Cn2ccnc2)c2ccccc2)ccc2c1CCCC2=O` (stereo not drawn) [Compound 50, 6-(2-Imidazolyl-1-phenylethoxy)-5-propyl-2,3,4-trihydro-naphthalen-1-one], the 50% inhibitory concentration (IC50) was found to be 8 nM.

For `CC(C)C(Cn1ccnc1)Oc1ccc2c(c1CS(=O)(=O)c1ccccc1)CCCC2=O` (stereo not drawn) [Compound 63l, 6-[1-(1H-Imidazol-1-ylmethyl)-2-methylpropoxy]-5-[(phenylsulfonyl)methyl]-3,4-dihydro-1(2H)-naphthalenone], the IC50 was found to be 5.5 nM.

For `O=C(NC1CC1)c1ccc(S(=O)(=O)Cc2c(O[C@H](Cn3ccnc3)c3ccccc3)ccc3c2CCCC3=O)cc1` [Compound 223, N-Cyclopropyl-4-{[(2-{[(1S)-2-(1H-imidazol-1-yl)-1-phenylethyl]oxy}-5-oxo-5,6,7,8-tetrahydro-1-naphthalenyl)methyl]sulfonyl}benzamide], the half-inhibitory concentration (IC50) amounted to 0.24 nM.

As to `C#CCNC(=O)c1ccc(S(=O)(=O)Cc2c(O[C@H](Cn3ccnc3)c3ccccc3)ccc3c2CCCC3=O)cc1` [Compound 214, 4-{[(2-{[(1S)-2-(1H-Imidazol-1-yl)-1-phenylethyl]oxy}-5-oxo-5,6,7,8-tetrahydro-1-naphthalenyl)methyl]sulfonyl}-N-(2-propynyl)benzamide], the IC50 was 0.37 nM.

`O=C1CCCc2c1ccc(O[C@H](Cn1ccnc1)c1cccnc1)c2CCc1ccccc1` (single isomer, unassigned) [Compound 63a]: the IC50 was 0.4 nM.

Take `O=C1CCCc2c1ccc(O[C@H](Cn1ccnc1)c1ccccc1)c2-c1ccc2ccccc2c1` [Compound 23, 6-((1S)-2-Imidazolyl-1-phenylethoxy)-5-(2-naphthyl)-2,3,4-trihydronaphthalen-1-one]: the IC50 is 11 nM.

Regarding `C=C(C)Cc1c(OC(Cn2ccnc2)c2ccccc2)ccc2c1CCCC2=O` (racemic) [Compound 52, (±)-6-(2-Imidazolyl-1-phenylethoxy)-5-(2-methylprop-2-enyl)-2,3,4-trihydronaphthalen-1-one], the half-inhibitory concentration (IC50) was 8 nM.

In the case of `O=C1CCCc2c1ccc(O[C@H](Cn1ccnc1)c1ccccc1)c2COc1cccc(Cl)c1` [Compound 69], the half-inhibitory concentration (IC50) was 0.7 nM.

`CC(O)CNC(=O)c1ccc(SCc2c(O[C@H](Cn3ccnc3)c3ccccc3)ccc3c2CCCC3=O)cc1` (stereo partly drawn) [Compound 256, N-(2-Hydroxypropyl)-4-{[(2-{[(1S)-2-(1H-imidazol-1-yl)-1-phenylethyl]oxy}-5-oxo-5,6,7,8-tetrahydro-1-naphthalenyl)methyl]sulfanyl}benzamide]: the concentration for half-maximal inhibition (IC50) is 0.2 nM.

With `CCOc1ccccc1OCc1c(O[C@H](Cn2ccnc2)c2ccccc2)ccc2c1CCCC2=O` [Compound 78, 6-((1S)-2-Imidazolyl-4-phenylethoxy)-5-[(2-ethoxyphenoxy)methyl]-2,3,4-trihydronaphthalen-1-one], the IC50 is 0.8 nM.

`C[C@@H](O)CNC(=O)c1ccc(S(=O)(=O)Cc2c(O[C@H](Cn3ccnc3)c3ccccc3)ccc3c2CCCC3=O)cc1` [Compound 203, N-[(2R)-2-Hydroxypropyl]-4-{[(2-{[(1S)-2-(1H-imidazol-1-yl)-1-phenylethyl]oxy}-5-oxo-5,6,7,8-tetrahydro-1-naphthalenyl)methyl]sulfonyl}benzamide]: the half-maximal inhibitory concentration (IC50) was 1.2 nM.

Turning to `CCCc1c(S[C@H](Cn2ccnc2)c2ccccc2)ccc2c1CCCC2=O` [Compound 62, 6-((1S)-2-imidazolyl-1-phenylethylthio)-5-propyl-2,3,4-trihydronaphthalen-1-one], the IC50 came out at 10 nM.

In the case of `Cc1ccc(OCc2c(O[C@H](Cn3ccnc3)c3ccccc3)ccc3c2CCCC3=O)cn1` [Compound 82], the IC50 is 9 nM.

In the case of `CC(C)c1cccc(OCc2c(O[C@H](Cn3ccnc3)c3ccccc3)ccc3c2CCCC3=O)c1` [Compound 74], the half-inhibitory concentration (IC50) was 3 nM.

For the compound `CC[C@H](C)CNC(=O)c1ccccc1S(=O)(=O)Cc1c(O[C@H](Cn2ccnc2)c2ccccc2)ccc2c1CCCC2=O` [Compound 249], the IC50 turned out to be 0.25 nM.

Turning to `O=C1CCCc2c1ccc(O[C@H](Cn1ccnc1)c1ccccc1)c2Cc1ccccc1` [Compound 45, 6-((1S)-2-imidazolyl-1-phenylethoxy)-5-benzyl-2,3,4-trihydro-naphthalen-one], the IC50 turned out to be 2 nM.

Consider `O=C(NC(CO)CO)c1ccccc1SCc1c(O[C@H](Cn2ccnc2)c2ccccc2)ccc2c1CCCC2=O` [Compound 232, N-[2-Hydroxy-1-(hydroxymethyl)ethyl]-2-{[(2-{[(1S)-2-(1H-imidazol-1-yl)-1-phenylethyl]oxy}-5-oxo-5,6,7,8-tetrahydro-1-naphthalenyl)methyl]sulfanyl}benzamide], for which the concentration for half-maximal inhibition (IC50) worked out at 0.2 nM.

As for `O=C1CCCc2c1ccc(O[C@H](Cn1ccnc1)c1ccccc1)c2CSCc1ccc(Cl)c(Cl)c1` [Compound 153, 5-(3,4-Dichloro-benzylsulfanylmethyl)-6-((1S)-2-imidazol-1-yl-1-phenyl-ethoxy)-3,4-dihydro-2H-naphthalen-1-one], the IC50 came to 15 nM.

On to `O=C(O)CCc1c(O[C@H](Cn2ccnc2)c2ccccc2)ccc2c1CCCC2=O` [Compound 32, 3-[2-((1S)-2-Imidazolyl-1-phenylethoxy)-5-oxo-6,7,8-trihydronaphthyl]propanoic acid], for which the IC50 was 25 nM.
